One assay addresses T1, GSPT1 protein (Homo sapiens, UniProt P15170+Q96SW2).
T1 construct: endogenous in cells; host or cells: Jeko-1
As to the kind of experiment: Western blot detection of degradation activity of GSPT1 protein in Jeko-1 cells. The format is cell-based. The following applies: JeKo-1, 24 h, read-out: GSPT1 degradation rate (%). The procedure, abridged: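 Jeko-1 cells in RPMI1640 with 20% FBS treated with compound or DMSO for 24 h at 37° C. GSPT1 detected in lysates by Western blot with GAPDH as internal reference. Band intensities quantified by gray-level analysis to calculate GSPT1 degradation rate.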

Another assay relates to HL-60 cells. Kind of assay: CTG method, inhibition of HL-60 cell proliferation. It counts as cell-based. The settings on record: Homo sapiens; HL-60, 72 hours; read-out: Cellular proliferation inhibition IC50. How it is done:
(§1) Test Example 2: CTG Method for Detecting the Inhibitory Effect of Compounds of Formula on the Proliferation of HNT 34 or HL-60 Cells
(§2) HNT-34 or HL-60 cells were taken and cultured in RPMI1640 medium containing 20% fetal bovine serum. The cells were inoculated on a 96 well plate, with 1×10^4 cells per well, and incubated at 37° C. in a […] incubator. After adding the test compound, it was incubated for 72 hours. Then an appropriate amount of CTG reagent was added, the luminescence value was measured, and the inhibition rate was calculated.

The next assay deals with HNT-34 cells. Kind of assay: CTG method, inhibition of HNT-34 cell proliferation. The settings on record: HNT-34, 72 hours; read-out: Cellular proliferation inhibition IC50. It counts as cell-based. How it is done: as §1, §2
A further assay deals with Jeko-1 cells. Kind of assay: CCK8 method, inhibition of Jeko-1 cell proliferation. The settings on record: Homo sapiens; Jeko-1, 72 hours; read-out: Cellular proliferation inhibition IC50. It counts as cell-based. How it is done:
Test Example 3: CCK8 Method for Detecting Inhibition of Jeko-1 Cell Proliferation by Compound of Formula
Cell culture: The Jeko-1 cell line (human lymphoma cells) was cultured in RPMI-1640 complete medium containing […] and 1% penicillin streptomycin, and incubated in an incubator at 37° C., 5% CO2, and saturated humidity.
Cell laying: Jeko-1 cells in logarithmic growth phase was taken, centrifuged, and an appropriate amount of complete culture medium was added to obtain a single-cell suspension, a hemocytometer was used for cell counting, and a cell suspension of 1.5×10^5 cells/mL was prepared, the cells were inoculated into a 96 well culture plate at a rate of 100 μL cell suspension per well and incubated in a CO2 cell incubator for 24 hours.
CCK-8 detection: 72 hours after administration, 10% CCK-8 solution was added to each well, placed in a CO2 cell culture incubator, and incubated for 1-4 hours. The absorbance of each well was measured using a microplate reader at 450 nm.
Calculation of cellular proliferation inhibition rate:
Cellular proliferation inhibition rate (%)=[(Ac−As)/(Ac−Ab)]×100% • As: absorbance in experimental wells (including cells, culture medium, CCK-8 solution, and drug solution) • Ac: absorbance in control wells (including cells, culture medium, CCK-8 solution, without drugs) • Ab: absorbance in blank wells (including culture medium, CCK-8 solution, without cells or drugs)

The subject of assay [1] is MV-4-11 subcutaneous transplant tumor. Kind of assay: In vivo efficacy in MV-4-11 subcutaneous transplant tumors. The settings on record: tumor volume on the 27th day. Set-up: species or system SCID mice. How it is done:
Test Example 4: Compound's In Vivo Efficacy in MV-4-11 Subcutaneous Transplant Tumors Experimental method: Human acute monocytic leukemia cell line MV-4-11 was used to construct a subcutaneous transplant tumor model in SCID mice. Grouping: solvent group, reference compound (IV: 2 mg/kg, Day 0-12; IP: 20 mg/kg, Day 13-26) group, 5-17 and 5-22 (IV: 0.5 mg/kg, Day 0-12; IP: 10 mg/kg, Day 13-26), with 5 animals in each group, once a day. The tumor volume on the 27th day was measured and the tumor inhibition rate was calculated. Tumor inhibition rate (%)=[(tumor volume in solvent group−tumor volume in drug group)/tumor volume in solvent group]×100%

[2] abbreviates: IV 0.5 mg/kg Day 0-12, IP 10 mg/kg Day 13-26, once a day.

Like-named read-outs stand apart in the source and are kept apart here.

T1 sequence (P15170 whole entry): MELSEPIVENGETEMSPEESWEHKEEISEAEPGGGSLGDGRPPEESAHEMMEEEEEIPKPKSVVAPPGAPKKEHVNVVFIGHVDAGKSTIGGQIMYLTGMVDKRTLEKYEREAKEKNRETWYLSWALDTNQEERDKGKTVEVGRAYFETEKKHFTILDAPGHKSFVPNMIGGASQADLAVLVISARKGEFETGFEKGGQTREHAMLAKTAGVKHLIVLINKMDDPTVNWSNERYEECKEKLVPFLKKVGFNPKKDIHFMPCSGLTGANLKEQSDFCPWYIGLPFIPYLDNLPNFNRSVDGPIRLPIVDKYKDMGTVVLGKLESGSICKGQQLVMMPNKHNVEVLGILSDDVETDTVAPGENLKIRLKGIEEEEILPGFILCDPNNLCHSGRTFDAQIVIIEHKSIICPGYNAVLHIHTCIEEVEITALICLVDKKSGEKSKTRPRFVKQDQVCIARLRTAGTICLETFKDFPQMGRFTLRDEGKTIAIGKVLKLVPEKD
T1 sequence (Q96SW2 whole entry): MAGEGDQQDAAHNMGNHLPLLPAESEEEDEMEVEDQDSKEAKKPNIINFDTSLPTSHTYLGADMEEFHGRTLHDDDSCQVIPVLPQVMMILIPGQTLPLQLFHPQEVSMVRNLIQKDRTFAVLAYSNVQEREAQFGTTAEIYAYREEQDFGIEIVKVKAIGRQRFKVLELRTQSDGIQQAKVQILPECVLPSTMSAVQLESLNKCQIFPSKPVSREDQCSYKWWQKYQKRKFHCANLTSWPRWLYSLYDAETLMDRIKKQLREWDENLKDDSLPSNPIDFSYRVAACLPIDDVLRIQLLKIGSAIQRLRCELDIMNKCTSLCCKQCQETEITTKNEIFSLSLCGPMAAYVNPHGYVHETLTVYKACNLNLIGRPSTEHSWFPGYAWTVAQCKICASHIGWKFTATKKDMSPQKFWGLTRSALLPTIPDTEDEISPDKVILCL
T1 sequence (Q16531 whole entry partner): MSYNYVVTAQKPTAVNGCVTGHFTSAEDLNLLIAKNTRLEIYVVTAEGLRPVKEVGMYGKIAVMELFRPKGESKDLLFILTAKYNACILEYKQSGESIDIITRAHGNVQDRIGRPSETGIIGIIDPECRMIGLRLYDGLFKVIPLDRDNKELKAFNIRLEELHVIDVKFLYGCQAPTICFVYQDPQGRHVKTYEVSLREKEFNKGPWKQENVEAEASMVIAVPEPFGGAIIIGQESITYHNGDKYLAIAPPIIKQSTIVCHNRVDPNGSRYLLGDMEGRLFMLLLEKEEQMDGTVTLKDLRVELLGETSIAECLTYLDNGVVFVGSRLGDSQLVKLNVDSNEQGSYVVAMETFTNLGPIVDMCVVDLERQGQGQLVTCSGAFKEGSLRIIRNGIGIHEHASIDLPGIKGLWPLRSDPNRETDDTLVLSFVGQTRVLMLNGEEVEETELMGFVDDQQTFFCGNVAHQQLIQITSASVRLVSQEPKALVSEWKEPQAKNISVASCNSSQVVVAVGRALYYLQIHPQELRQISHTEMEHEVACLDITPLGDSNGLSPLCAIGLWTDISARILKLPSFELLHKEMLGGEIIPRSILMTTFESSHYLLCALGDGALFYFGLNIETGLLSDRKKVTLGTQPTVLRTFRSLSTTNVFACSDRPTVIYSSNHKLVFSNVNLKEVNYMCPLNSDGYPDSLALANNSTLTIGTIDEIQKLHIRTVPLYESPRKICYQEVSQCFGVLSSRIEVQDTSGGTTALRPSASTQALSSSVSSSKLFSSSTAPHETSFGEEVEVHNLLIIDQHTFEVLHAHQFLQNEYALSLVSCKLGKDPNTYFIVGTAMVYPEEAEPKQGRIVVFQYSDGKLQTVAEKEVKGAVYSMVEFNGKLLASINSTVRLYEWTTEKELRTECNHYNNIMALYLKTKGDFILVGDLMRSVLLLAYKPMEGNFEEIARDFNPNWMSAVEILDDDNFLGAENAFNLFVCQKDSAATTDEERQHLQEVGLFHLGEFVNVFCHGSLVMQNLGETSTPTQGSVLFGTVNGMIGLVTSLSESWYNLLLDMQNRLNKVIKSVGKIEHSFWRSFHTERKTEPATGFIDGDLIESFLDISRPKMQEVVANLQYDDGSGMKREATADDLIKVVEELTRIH

As to `CC(C)(C)OC(=O)N[C@H](C(=O)NCc1ccc2c(c1)CN(C1CCC(=O)NC1=O)C2=O)c1ccc(Cl)cc1` (stereo partly drawn) [Compound 4-150, Tert butyl ((1S)-1-(4-chlorophenyl)-2-((2-(2,6-dioxopyridin-3-yl)-1-oxoisoidoline-5-yl)methyl)amino)-2-oxoethyl) carbamate], the inhibition at 0.1 µM at GSPT1 protein (100 nM, Jeko-1 cells, 24 hours) is 90%. On GSPT1 protein (10 μM, Jeko-1 cells, 24 hours), the inhibition at 10 µM came to 99%. The values for the IC50 in the assay with HL-60 cells, with HNT-34 cells and in the assay on Jeko-1 cells were 9.2 nM, 6.5 nM and 3.9 nM, respectively.

As for `CC(C)(C)OC(=O)NC(C(=O)NCc1ccc2c(c1)CN(C1CCC(=O)NC1=O)C2=O)c1ccc(Cl)c(Cl)c1` (stereo not drawn) [Compound 4-151, Tert butyl (1-(3,4-dichlorophenyl)-2-((2-(2,6-dioxopyridin-3-yl)-1-oxoisoindoline-5-yl)methyl)amino)-2-oxoethyl) carbamate], on GSPT1 protein (100 nM, Jeko-1 cells, 24 hours), the inhibition at 0.1 µM came to 77%. For the same compound, the inhibition at 10 µM on GSPT1 protein (10 μM, Jeko-1 cells, 24 hours) stood at 95%. The IC50 amounted to 11.6 nM with HL-60 cells, 7.8 nM with HNT-34 cells and 1.3 nM in the assay on Jeko-1 cells.

In the case of `CC(C)(C)OC(=O)N[C@H](C(=O)NCc1ccc2c(c1)CN(C1CCC(=O)NC1=O)C2=O)c1ccc(F)c(Cl)c1` (stereo partly drawn) [Compound 4-152, Tert butyl (1-(3-chloro-4-fluorophenyl)-2-((2-(2,6-dioxopyridin-3-yl)-1-oxoisoindoline-5-yl)methyl)amino)-2-oxoethyl) carbamate], the inhibition at 0.1 µM at GSPT1 protein (100 nM, Jeko-1 cells, 24 hours) came to 93%. Besides, at GSPT1 protein (10 μM, Jeko-1 cells, 24 hours), the inhibition at 10 µM turned out to be 82%. Moreover, the values for the IC50 with HL-60 cells, in the assay on HNT-34 cells and in the assay with Jeko-1 cells were 7.9 nM, 6.6 nM and 0.7 nM, respectively.

Turning to `CC(C)(C)OC(=O)N[C@H](C(=O)NCc1ccc2c(c1)CN(C1CCC(=O)NC1=O)C2=O)c1ccccc1Cl` (stereo partly drawn) [Compound 5-17, Tert butyl ((1S)-1-(2-chlorophenyl)-2-((2-(2,6-dioxopyridin-3-yl)-1-oxoisoidoline-5-yl)methyl)amino)-2-oxoethyl) carbamate], the inhibition at 0.1 µM on GSPT1 protein (100 nM, Jeko-1 cells, 24 hours) stood at 94.2%. Besides, at GSPT1 protein (10 μM, Jeko-1 cells, 24 hours), the inhibition at 10 µM came out at 95.6%. For the same compound, the IC50 in the assay on HL-60 cells came to 4.2 nM; in the assay on HNT-34 cells it was 3.2 nM; with Jeko-1 cells it was 0.1 nM. The “Tumor inhibition rate (%)” value in assay [1] (setting [2]) was 99.6%.

With `CC(C)OC(=O)N[C@H](Cc1ccccc1)C(=O)NCc1ccc2c(c1)CN(C1CCC(=O)NC1=O)C2=O` (stereo partly drawn) [Compound 5-22, Isopropyl ((2R)-1-((2-(2,6-dioxypiperidin-3-yl)-1-oxoisoindolin-5-yl)methyl)amino)-1-oxo-3-phenylprop-2-yl) carbamate], the inhibition at 0.1 µM on GSPT1 protein was found to be 77.7%. Besides, the inhibition at 10 µM on GSPT1 protein turned out to be 95.7%. The IC50 turned out to be 18.6 nM in the assay on HL-60 cells, 21.3 nM in the assay on HNT-34 cells and 0.6 nM in the assay on Jeko-1 cells. In addition, the “Tumor inhibition rate (%)” value in assay [1] (setting [2]) is recorded as 99.8%.

For `CC(C)(C)OC(=O)N[C@@H](Cc1ccccc1)C(=O)NCc1ccc2c(c1)CN(C1CCC(=O)NC1=O)C2=O` (stereo partly drawn) [Compound 5-37, Tert butyl ((2S)-1-(2-(2,6-dioxypiperidin-3-yl)-1-oxoisoindoline-5-yl)methyl) amino)-1-oxo-3-phenylprop-2-yl) carbamate], at GSPT1 protein (100 nM, Jeko-1 cells, 24 hours), the inhibition at 0.1 µM was found to be 97.8%. Also, the inhibition at 10 µM on GSPT1 protein (10 μM, Jeko-1 cells, 24 hours) stood at 99.5%. The IC50 in the assay on Jeko-1 cells turned out to be 0.6 nM.

For `CC(C)(C)OC(=O)NCC(C(=O)NCc1ccc2c(c1)CN(C1CCC(=O)NC1=O)C2=O)c1ccc(Cl)cc1` (stereo not drawn) [Compound 5-41, Tert butyl (2-(4-chlorophenyl)-3-((2-(2,6-dioxypiperidin-3-yl)-1-oxoisoindoline-5-yl)methyl)amino)-3-oxopropyl) carbamate], the inhibition at 0.1 µM at GSPT1 protein (100 nM, Jeko-1 cells, 24 hours) was 96.9%. Also, on GSPT1 protein (10 μM, Jeko-1 cells, 24 hours), the inhibition at 10 µM came to 96.7%. Besides, in the assay on Jeko-1 cells, the IC50 worked out at 0.04 nM.

On to `CC(C)(C)OC(=O)N[C@@H](CC1CCCCC1)C(=O)NCc1ccc2c(c1)CN(C1CCC(=O)NC1=O)C2=O` (stereo partly drawn) [Compound 5-46, Tert butyl ((2S)-3-cyclohexyl-1-(2-((2,6-dioxopyridin-3-yl)-1-oxoisoidoline-5-yl)methyl)amino)-1-oxopropan-2-yl) carbamate], for which the inhibition at 0.1 µM on GSPT1 protein (100 nM, Jeko-1 cells, 24 hours) was 90.6%. Further, the inhibition at 10 µM on GSPT1 protein (10 μM, Jeko-1 cells, 24 hours) stood at 93.6%. Besides, the IC50 in the assay with HL-60 cells worked out at 8.3 nM; in the assay on HNT-34 cells, 3.7 nM; in the assay on Jeko-1 cells, 0.2 nM.

In the case of `O=C1CCC(N2Cc3cc(CNC(=O)C(F)(F)c4ccc(Cl)cc4)ccc3C2=O)C(=O)N1` (stereo not drawn) [Reference compound, reference compound], the “Tumor inhibition rate (%)” value in assay [1] (IV 2 mg/kg Day 0-12, IP 20 mg/kg Day 13-26, once a day) was 28.3%.

The values above are taken from patent publication US20250214960A1, “COMPOUNDS HAVING ACTIVITY OF DEGRADING GSPT1 AND APPLICATION THEREOF” (SHANGHAI MEIZER PHARMACEUTICALS CO., LTD., priority 2021, published 2025).
